≈ marks a conversion by molar mass, not a printed value. Like-named read-outs stand apart in the source and are kept apart here. No end group written: not given here.
What was measured:
[1] = system: S. aureus (strain not given); assay: MIC analysis of various lysins, chimeric lysins and antibiotics in MHB and human serum; type: cell-based; conditions: Table 2; for MIC: Staphylococcus aureus; for Fold decrease in MIC: human serum vs MHB
[2] = system: S. aureus (strain not given); assay: as above; type: cell-based; conditions: for Minimal inhibitory concentration, MHB / Fold decrease in MIC / Minimal inhibitory concentration, Human serum: Table 14 (Example 2); for Fold decrease in MIC: human serum vs MHB; for MIC: Staphylococcus aureus
Procedure: To further evaluate the binding domain relevance to the serum component effect, various chimerics were constructed by replacing or swapping out one binding domain for another. Chimeric lysins having the Sal1 CHAP catalytic domain with ClyS binding domain, PlySs2 (CF-301) binding domain, or lysostaphin binding domain were assayed for MIC using MHB versus human serum. the results are depicted below in TABLE 14.

MRSA strain MW2 [3] = assay: Rabbit infective endocarditis model; type: in vivo, New Zealand White Rabbits; conditions: rabbit IE model; daptomycin 4 mg/kg IV once daily for 4 days
MRSA strain MW2 [4] = assay: Checkerboard assay in human serum and MHB; type: cell-based, S. aureus; conditions: in combination with PlySs2 (CF-301)
[5] = system: methicillin-resistant S. aureus (MRSA) strain MW2; assay: Time-kill assay in blood matrices and MHB; type: cell-based; conditions: strain MW2; human blood matrices vs MHB
[6] = system: staphylococci (strain not given); assay: Checkerboard analysis of PlySs2/CF-301 with AMPs, antimicrobial proteins and albumins in heat-inactivated human serum; type: cell-based, S. aureus; conditions: in combination with PlySs2/CF-301
S. aureus strain MW2 = assay: Synergy time-kill assay; type: cell-based; conditions: human serum

For `CCCCCCCCCC(=O)N[C@@H](Cc1c[nH]c2ccccc12)C(=O)N[C@H](CC(N)=O)C(=O)N[C@@H](CC(=O)O)C(=O)N[C@@H]1C(=O)NCC(=O)N[C@@H](CCCN)C(=O)N[C@@H](CC(=O)O)C(=O)N[C@H](C)C(=O)N[C@@H](CC(=O)O)C(=O)NCC(=O)N[C@H](CO)C(=O)N[C@@H]([C@H](C)CC(=O)O)C(=O)N[C@@H](CC(=O)c2ccccc2N)C(=O)O[C@@H]1C` [Daptomycin, daptomycin, reference compound], the MIC ([1]; MHB, read-out: Minimal inhibitory concentration, MHB) was 0.5 µg/mL (≈ 0.309 µM), the MIC ([1]; human serum, read-out: Minimal inhibitory concentration, Human serum) was 8 µg/mL (≈ 4.94 µM) and the “Fold decrease in MIC” value [1] was “no”. The “Minimal inhibitory concentration, MHB” value [2] was 0.5 µg/mL (≈ 0.309 µM), the “Fold decrease in MIC” value [2] was “no” and the “Minimal inhibitory concentration, Human serum” value [2] was 8 µg/mL (≈ 4.94 µM). For the same compound, the “reduction in bacterial burden compared to vehicle treated controls” value (MRSA strain MW2 [3]) was 2-3 log10, the ΣFICAVG (MRSA strain MW2 [4]; HuS) was 0.292 and the ΣFICMIN (MRSA strain MW2 [4]; HuS) was 0.25. For the same compound, the ΣFICAVG (MRSA strain MW2 [4]; MHB) was 0.63 and the ΣFICMIN (MRSA strain MW2 [4]; MHB) was 0.5.

In the case of `CN[C@H](CC(C)C)C(=O)N[C@H]1C(=O)N[C@@H](CC(N)=O)C(=O)N[C@H]2C(=O)N[C@H]3C(=O)N[C@H](C(=O)N[C@H](C(=O)O)c4cc(O)cc(O)c4-c4cc3ccc4O)[C@H](O)c3ccc(c(Cl)c3)Oc3cc2cc(c3O[C@@H]2O[C@H](CO)[C@@H](O)[C@H](O)[C@H]2O[C@H]2C[C@](C)(N)[C@H](O)[C@H](C)O2)Oc2ccc(cc2Cl)[C@H]1O` [Vancomycin, vancomycin, reference compound], the “difference in sterilizing activity/potency, blood compared to MHB” value [5] is reported as “slightly decreased potency”, the “Fold decrease in MIC” value [1] is reported as “no” and the “Minimal inhibitory concentration, MHB” value [2] is reported as 1 µg/mL (≈ 0.69 µM). The MIC ([2]; read-out: Minimal inhibitory concentration, Human serum) was 1 µg/mL (≈ 0.69 µM), the MIC ([2]; read-out: Minimal inhibitory concentration, MHB) was 1 µg/mL (≈ 0.69 µM) and the “Fold decrease in MIC” value [2] was “no”. The “Minimal inhibitory concentration, Human serum” value [2] was 1 µg/mL (≈ 0.69 µM), the ΣFICAVG (MRSA strain MW2 [4]; HuS) was 0.5 and the ΣFICMIN (MRSA strain MW2 [4]; HuS) was 0.375. It also gave a ΣFICAVG (MRSA strain MW2 [4]; MHB) of 0.63 and a ΣFICMIN (MRSA strain MW2 [4]; MHB) of 0.5.

In the case of HNP-1: Human AMP [reference compound], the ΣFICavg [6] is reported as 1.

In the case of Histatin-5 [reference compound], the ΣFICavg [6] is reported as at least 1.16.

Compound “LEAP-1: Human AMP (Hepcidin) (DTHFPICIFCCGCCHRSKCGMCCKT; ends and bridges not checked; cysteine pairing not given here; UniProt P81172 60-84, looked up) [reference compound]” has a ΣFICavg [6] of 0.75.

“LEAP-2: Human AMP (MTPFWRGVSLRPIGASCRDDSECITRLCRKRRCSLSVAQE; ends and bridges not checked; cysteine pairing not given here; UniProt Q969E1 38-77, looked up) [reference compound]” gave a ΣFICavg [6] of 1.

In the case of LL-37 [reference compound], the ΣFICavg [6] is reported as 1.

In the case of “Lysostaphin: lysin-like enzyme of Staphylococcus simulans with SH3-type binding domain; SEQ ID NO:7”, the “difference in sterilizing activity/potency, blood compared to MHB” value [5] is reported as 100 fold, the “Minimal inhibitory concentration, MHB” value ([1]; MHB) is reported as 2 µg/mL and the “Fold decrease in MIC” value [1] is reported as 512. The “Fold decrease in MIC” value ([1]; listed as lysostaphin) was 32, the “Minimal inhibitory concentration, Human serum” value ([1]; human serum) was 0.0039 µg/mL and the “Minimal inhibitory concentration, MHB” value [2] was 2 µg/mL. The “Fold decrease in MIC” value [2] was 512, the “Minimal inhibitory concentration, Human serum” value [2] was 0.0039 µg/mL and the “concentration of each agent in PlySs2 (CF-301) + lysostaphin combination sterilizing at 24 hours” value (S. aureus strain MW2) was 0.005 µg/mL. The ΣFICAVG (MRSA strain MW2 [4]; HuS) was 0.13, the ΣFICMIN (MRSA strain MW2 [4]; HuS) was 0.09 and the ΣFICAVG (MRSA strain MW2 [4]; MHB) was 0.5. It also gave a ΣFICMIN (MRSA strain MW2 [4]; MHB) of 0.275.

Work on “Lysozyme (Hen egg-white): lysozyme, hen egg” yielded a ΣFICavg [6] of at most 0.563.

With “Serum albumin (Rabbit, from serum): rabbit serum albumin” the ΣFICavg [6] was at most 0.1.

“β-Defensin 3: Human AMP (hBD-3) (GIINTLQKYYCRVRGGRCAVLSCLPKEEQIGKCSTRGRKCCRRKK; ends and bridges not checked; cysteine pairing not given here; UniProt P81534 23-67, looked up) [reference compound]” gave a ΣFICavg [6] of 1.

— US20220023399A1, “BLOOD COMPONENT POTENTIATION OF LYTIC PROTEIN ANTI-BACTERIAL ACTIVITY AND METHODS AND USES THEREOF” (priority 2017, published 2022)
